Biological target: T1, human TRPV1 (Homo sapiens, UniProt Q8NER1)
T1 construct: expressed in transfected cells; host or cells: CHO-K1
Assay: Measurement of capsaicin-induced Ca influx in human TRPV1 transformed CHO cell line using FDSS-6000
Type: cell-based
Conditions: concentration at which the capsaicin concentration-reaction curve is shifted two times to the right, human TRPV1 transformed CHO cells
Text: [Measurement of Capsaicin-Induced Ca Influx in Human TRPV1 Transformed CHO Cell Line]
(1) Establishment of Human TRPV1 Transformed CHO Cell Line
Human vanilloid receptor 1 (hTRPV1) cDNA was cloned from a human brain. The cloned hTRPV1 cDNA was incorporated in a pCAGGS vector. The gene of the vector was introduced to a CHO-K1 cell line, thus performing transformation. Clones obtained by limiting dilution were stimulated with capsaicin. Clones with a high responsiveness were selected using an increase in the Ca concentration as an indicator. The selected clones were used for the following experiment.
(2) Measurement of Ca Influx Using FDSS-6000
The human TRPV1 transformed CHO cells were seeded in a 96-well plate (with black walls and transparent bottoms, manufactured by Greiner) at a density of 40,000 cells per well. The cells were cultured at 37° C. in 5% CO2 for one night. A loading solution of FLIPR Calcium 3 assay kit (manufactured by Molecular Devices Corporation) containing 2.5 mmol/L of probenecid was then added to each of the wells in the same amount as the culture medium, and the cells were cultured at 37° C. for 60 minutes. After the cells were stimulated with capsaicin (1 nmol/L to 1 μmol/L), the change in the Ca concentration in the cells was measured using FDSS-6000 (λex: 480 nm, λem: 540 nm, manufactured by Hamamatsu Photonics K.K.) for three minutes. The integrated values of the increase rate of the Ca concentration in the cells were calculated for a group treated with the compounds of the present invention and a group treated with a medium, thus allowing capsaicin concentration-reaction curves to be obtained. A concentration (A2 value) of each of the compounds of the present invention, at which the capsaicin concentration-reaction curve obtained when the cells were treated with the medium was shifted two times to the right side, was calculated. The inhibiting effects of the test compounds were compared using this value as an indicator.
In the case where a compound of the present invention is an agonist, when the cells are treated with the compound of the present invention prior to the capsaicin stimulation, the Ca influx is observed. In Table 1, compounds of the present invention having an A2 value of less than 100 nM are represented by A, and compounds having an A2 value of 100 nM or more are represented by B. When the A2 values of the compounds of the present invention were measured by the above-described method, the compounds have an intensity of 1 μM or less.

T1 sequence (Q8NER1 whole entry): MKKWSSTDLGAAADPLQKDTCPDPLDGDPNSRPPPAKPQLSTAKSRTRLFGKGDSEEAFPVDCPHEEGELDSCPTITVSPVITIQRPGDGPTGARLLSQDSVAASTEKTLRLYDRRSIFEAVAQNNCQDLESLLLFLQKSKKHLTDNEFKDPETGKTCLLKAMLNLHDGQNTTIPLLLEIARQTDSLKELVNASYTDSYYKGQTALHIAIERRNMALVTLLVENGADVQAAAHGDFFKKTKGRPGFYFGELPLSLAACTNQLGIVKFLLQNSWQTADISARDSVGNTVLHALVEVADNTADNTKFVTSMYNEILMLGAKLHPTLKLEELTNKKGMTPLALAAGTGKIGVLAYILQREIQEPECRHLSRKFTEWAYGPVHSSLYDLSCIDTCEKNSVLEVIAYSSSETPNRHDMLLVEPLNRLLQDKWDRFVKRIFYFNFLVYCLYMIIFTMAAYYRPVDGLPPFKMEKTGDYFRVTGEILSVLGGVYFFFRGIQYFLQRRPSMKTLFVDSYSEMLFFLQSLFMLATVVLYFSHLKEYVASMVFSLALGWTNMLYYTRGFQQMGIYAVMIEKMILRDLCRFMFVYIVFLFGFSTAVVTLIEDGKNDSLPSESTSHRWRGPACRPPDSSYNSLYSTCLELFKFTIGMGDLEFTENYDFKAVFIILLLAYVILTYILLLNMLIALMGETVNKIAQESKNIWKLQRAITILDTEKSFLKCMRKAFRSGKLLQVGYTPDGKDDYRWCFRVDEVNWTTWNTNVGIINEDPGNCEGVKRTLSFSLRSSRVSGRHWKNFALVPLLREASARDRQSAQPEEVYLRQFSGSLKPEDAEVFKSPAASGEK

Row | Compound | A2 VALUE
1 | O=C(/C=C1\CCCOc2cc(C(F)(F)F)ccc21)Nc1ccc2c(c1)C(=O)CCC2 [Example 23, (E)-2-(8-trifluoromethyl-3,4-dihydrobenzo[b]oxepin-5(2H)-ylidene)-N-(1,2,3,4-tetrahydro-1-oxonaphthalen-7-yl)acetamide] | A (compounds of the present invention having an A2 value of less than 100 nM are represented by A)
2 | O=C(/C=C1\CCCOc2cc(C(F)(F)F)ccc21)Nc1ccc2c(c1)C(=O)OC2 [Example 24, (E)-2-(8-trifluoromethyl-3,4-dihydrobenzo[b]oxepin-5(2H)-ylidene)-N-(1,3-dihydro-1-oxoisobenzofuran-6-yl)acetamide] | A (compounds of the present invention having an A2 value of less than 100 nM are represented by A)
3 | O=C(/C=C1\CCCOc2cc(C(F)(F)F)ccc21)Nc1ccc(C(=O)N2CCOCC2)cc1 [Example 25, (E)-2-(8-trifluoromethyl-3,4-dihydrobenzo[b]oxepin-5(2H)-ylidene)-N-(4-(4-morpholinylcarbonyl)phenyl)acetamide] | B (compounds having an A2 value of 100 nM or more are represented by B)
4 | O=C(/C=C1\CCCOc2cc(C(F)(F)F)ccc21)Nc1ccc(S(=O)(=O)N2CCOCC2)cc1 [Example 26, (E)-2-(8-trifluoromethyl-3,4-dihydrobenzo[b]oxepin-5(2H)-ylidene)-N-(4-(4-morpholinylsulfonyl)phenyl)acetamide] | B (compounds having an A2 value of 100 nM or more are represented by B)
5 | O=C(/C=C1\CCCOc2cc(C(F)(F)F)ccc21)Nc1ccc(Oc2ccc(C(F)(F)F)cn2)cc1 [Example 27] | B (compounds having an A2 value of 100 nM or more are represented by B)
6 | O=C(/C=C1\CCCOc2cc(C(F)(F)F)ccc21)Nc1cccc(-c2cnc3ccccc3n2)c1 [Example 28, (E)-2-(8-trifluoromethyl-3,4-dihydrobenzo[b]oxepin-5(2H)-ylidene)-N-(3-(quinoxalin-2-yl)phenyl)acetamide] | B (compounds having an A2 value of 100 nM or more are represented by B)
7 | O=C(/C=C1\CCCOc2cc(C(F)(F)F)ccc21)Nc1ccc(Cc2ccncc2)cc1 [Example 29, (E)-2-(8-trifluoromethyl-3,4-dihydrobenzo[b]oxepin-5(2H)-ylidene)-N-(4-((pyridin-4-yl)methyl)phenyl)acetamide] | B (compounds having an A2 value of 100 nM or more are represented by B)
8 | CC(NC(=O)/C=C1\CCCOc2cc(C(F)(F)F)ccc21)c1ccccn1 (stereo not drawn) [Example 30, (E)-2-(8-trifluoromethyl-3,4-dihydrobenzo[b]oxepin-5(2H)-ylidene)-N-(1-(pyridin-2-yl)ethyl)acetamide] | B (compounds having an A2 value of 100 nM or more are represented by B)
9 | O=C(/C=C1\CCCOc2cc(C(F)(F)F)ccc21)NC(c1ccccc1)c1ccccn1 (stereo not drawn) [Example 31, (E)-2-(8-trifluoromethyl-3,4-dihydrobenzo[b]oxepin-5(2H)-ylidene)-N-(phenyl(pyridin-2-yl)methyl)acetamide] | B (compounds having an A2 value of 100 nM or more are represented by B)
10 | O=C(/C=C1\CCCOc2cc(C(F)(F)F)ccc21)NCc1ccc2c(c1)OCCO2 [Example 32, (E)-2-(8-trifluoromethyl-3,4-dihydrobenzo[b]oxepin-5(2H)-ylidene)-N-((2,3-dihydrobenzo[b][1,4]dioxin-6-yl)methyl)acetamide] | B (compounds having an A2 value of 100 nM or more are represented by B)
11 | CC(NC(=O)/C=C1\CCCOc2cc(C(F)(F)F)ccc21)c1ccc2c(c1)OCCO2 (stereo not drawn) [Example 33, (E)-2-(8-trifluoromethyl-3,4-dihydrobenzo[b]oxepin-5(2H)-ylidene)-N-(1-(2,3-dihydrobenzo[b][1,4]dioxin-6-yl)ethyl)acetamide] | B (compounds having an A2 value of 100 nM or more are represented by B)
12 | O=C(/C=C1\CCCOc2cc(C(F)(F)F)ccc21)NCC1COc2ccccc2O1 (stereo not drawn) [Example 34, (E)-2-(8-trifluoromethyl-3,4-dihydrobenzo[b]oxepin-5(2H)-ylidene)-N-((2,3-dihydrobenzo[b][1,4]dioxin-2-yl)methyl)acetamide] | B (compounds having an A2 value of 100 nM or more are represented by B)
13 | O=C(/C=C1\CCCOc2cc(C(F)(F)F)ccc21)NCc1ccc2c(c1)CCO2 [Example 35, (E)-2-(8-trifluoromethyl-3,4-dihydrobenzo[b]oxepin-5(2H)-ylidene)-N-((2,3-dihydrobenzofuran-5-yl)methyl)acetamide] | B (compounds having an A2 value of 100 nM or more are represented by B)
14 | O=C(/C=C1\CCCOc2cc(C(F)(F)F)ccc21)NCc1ccccc1N1CCOCC1 [Example 36, (E)-2-(8-trifluoromethyl-3,4-dihydrobenzo[b]oxepin-5(2H)-ylidene)-N-(2-morpholinophenyl)methyl-acetamide] | B (compounds having an A2 value of 100 nM or more are represented by B)
15 | O=C(/C=C1\CCCOc2cc(C(F)(F)F)ccc21)NCc1ccc(-c2csnn2)cc1 [Example 37, (E)-2-(8-trifluoromethyl-3,4-dihydrobenzo[b]oxepin-5(2H)-ylidene)-N-(4-(1,2,3-thiadiazolo-4-yl)phenylmethyl)acetamide] | B (compounds having an A2 value of 100 nM or more are represented by B)
16 | O=C(/C=C1\CCCOc2cc(C(F)(F)F)ccc21)NCc1ccc(-n2cccn2)cc1 [Example 38, (E)-N-(4-(1H-pyrazolo-1-yl)phenylmethyl)-2-(8-trifluoromethyl-3,4-dihydrobenzo[b]oxepin-5(2H)-ylidene)acetamide] | B (compounds having an A2 value of 100 nM or more are represented by B)
17 | Cc1nc(-c2ccc(Cl)cc2)sc1CNC(=O)/C=C1\CCCOc2cc(C(F)(F)F)ccc21 [Example 39, (E)-N-((2-(4-chlorophenyl)-4-methylthiazol-5-yl)methyl)-2-(8-trifluoromethyl-3,4-dihydrobenzo[b]oxepin-5(2H)-ylidene)acetamide] | B (compounds having an A2 value of 100 nM or more are represented by B)
18 | O=C(/C=C1\CCCOc2cc(C(F)(F)F)ccc21)NCc1nnc2ccccn12 [Example 40] | B (compounds having an A2 value of 100 nM or more are represented by B)
19 | Cn1nc(NC(=O)/C=C2\CCCOc3cc(C(F)(F)F)ccc32)c2cccnc21 [Example 41, (E)-2-(8-trifluoromethyl-3,4-dihydrobenzo[b]oxepin-5(2H)-ylidene)-N-(1-methyl-1H-pyrazolo[3,4-b]pyridin-3-yl)acetamide] | B (compounds having an A2 value of 100 nM or more are represented by B)
20 | O=C(/C=C1\CCCOc2cc(C(F)(F)F)ccc21)Nc1n[nH]c2ccccc12 [Example 42, (E)-2-(8-trifluoromethyl-3,4-dihydrobenzo[b]oxepin-5(2H)-ylidene)-N-(1H-indazol-3-yl)acetamide] | B (compounds having an A2 value of 100 nM or more are represented by B)
21 | CCn1c(NC(=O)/C=C2\CCCOc3cc(C(F)(F)F)ccc32)nc2ccccc21 [Example 43, (E)-N-(1-ethyl-1H-benzo[d]imidazolo-2-yl)-2-(8-trifluoromethyl-3,4-dihydrobenzo[b]oxepin-5(2H)-ylidene)acetamide] | B (compounds having an A2 value of 100 nM or more are represented by B)
22 | O=C(/C=C1\CCCOc2cc(C(F)(F)F)ccc21)Nc1ccnc2ncnn12 [Example 44, (E)-N-([1,2,4]triazolo[1,5-a]pyrimidin-7-yl)-2-(8-trifluoromethyl-3,4-dihydrobenzo[b]oxepin-5(2H)-ylidene)acetamide] | B (compounds having an A2 value of 100 nM or more are represented by B)
23 | O=C(/C=C1\CCCOc2cc(C(F)(F)F)ccc21)NC1CCCc2cccnc2C1 (stereo not drawn) [Example 45, (E)-2-(8-trifluoromethyl-3,4-dihydrobenzo[b]oxepin-5(2H)-ylidene)-N-(6,7,8,9-tetrahydro-5H-cyclohepta[b]pyridin-8-yl)acetamide] | B (compounds having an A2 value of 100 nM or more are represented by B)
24 | Cc1cc(NC(=O)/C=C2\CCCOc3cc(C(F)(F)F)ccc32)n(C(C)(C)C)n1 [Example 46, (E)-N-(1-tert-butyl-3-methyl-1H-pyrazolo-5-yl)-2-(8-trifluoromethyl-3,4-dihydrobenzo[b]oxepin-5(2H)-ylidene)acetamide] | B (compounds having an A2 value of 100 nM or more are represented by B)
